Reference: patent US20160058743A1, “METHODS FOR TREATING SENSORIMOTOR IMPAIRMENTS ASSOCIATED WITH CERTAIN TYPES OF STROKE USING AMINOPYRIDINES” (ACORDA THERAPEUTICS, INC., priority 2013, published 2016)
Values joined by “and” are separate entries in the source; they are usually repeats but may differ in a detail not shown here. Equal values may be shown once. “Also recorded” adds a separate entry of the source.

Experiments:
[1] = cited from earlier work
[2] = system: rats with middle cerebral artery occlusion (MCAO); test: Infarct volume measurement (H&E staining); type: in vivo, Sprague Dawley rats; conditions: % of contralateral hemisphere; for Mean infarct volume (%): Example 2 crossover, Day 63
Protocol: Euthanasia and post-mortem processing: Infarct Volume analysis. After the last behavioral assessment, rats were anesthetized deeply with ketamine/xylazine (100 mg/kg ketamine, 10 mg/kg xylazine, i.p.) and perfused transcardially with normal saline (with heparin 2 unit/ml) followed by 4% paraformaldehyde or formalin on Day 63. Brains were harvested and processed for histological assessment. A subset of 10 brains per group was processed for infarct volume measurement (H&E staining).
Infarct measurement: Brains were embedded in paraffin and 5 micron thick coronal sections were cut using a microtome. Sections were stained with hematoxylin and eosin (H&E), using standard methods. Seven coronal sections (+4.7, +2.7, +0.7, −1.3, −3.3, −5.3 and −7.3, compared to bregma respectively) from each brain were photographed by a digital camera, and the infarct area on each slice was determined by NIH Image (Image J) using the “indirect method” (area of the intact contralateral [left] hemisphere−area of intact regions of the ipsilateral [right] hemisphere) to correct for brain edema. Infarct areas were then summed among slices and multiplied by slice thickness (the distance between sections) to give total infarct volume, which was expressed as a percentage of intact contralateral hemispheric volume.
Euthanasia and post-mortem processing: At day 70 after MCAO, rats were anesthetized as described in Example 2, above.
Infarct measurement: Infarct measurement was performed as described in Example 2, above.

Body weight of MCAO rats = type: in vivo, Sprague Dawley rats; conditions: individual animals and group Mean
Source text: Tables 16-18 show Cylinder Test Total Score (% of overall asymmetry) for each of Groups 1-3.

[3] = system: rats with middle cerebral artery occlusion (MCAO); test: Body swing test after MCAO; type: in vivo, Sprague Dawley rats; conditions: for Body Swing Test (% right Swing): Group 3 mean, phase 2
Source text: (§1) In particular, the MCAO model in Sprague Dawley rats that was utilized in the experiments presented below mimics the conditions in human ischemic stroke. In this model, focal cerebral infarcts were made by permanent occlusion of the proximal right middle cerebral artery (MCA) using a modification of the method of Tamura et al. (No To Shinkei 1986; 38:747-51). Briefly, the temporalis muscle was bisected and reflected through an incision made midway between the eye and the ear canal. The proximal MCA was exposed through a subtemporal craniectomy without removing the zygomatic arch and without transecting the facial nerve.
(§2) In this experiment, Sprague Dawley rats were anesthetized, subjected to a surgery resulting in middle cerebral artery occlusion (MCAO), treated with and without 4-aminopyridine and behavioral assessments were performed as described below. Treatment was initiated at 4 weeks after stroke.
(§3) Dosing and Treatment: Rats were treated in accordance with the dosing schedule shown in Tables 2A, 2B, 3 and FIG. 2, with each Phase being a two week period of time. A solution of 4-AP was used in this experiment. Dosing was started at 4 weeks after ischemic event. 4-aminopyridine was dissolved in water for injection (WFI, Cellgro) and sterile filtered. Final concentrations of 0.315 mg/mL or 1.0 mg/mL of 4-aminopyridine were delivered at 2 mL/kg by gastric gavage, resulting in final doses of 0.63 mg/kg and 2 mg/kg respectively. Vehicle control treatment was WFI delivered at 2 mL/kg by gastric gavage. This study was divided into three treatment phases (1-3) with each randomized cohort of animals receiving a different dose level during each of the treatment phases. Starting on day 30 after MCAO (Day 30, start of phase 1), the animals received gavage dosing of solutions (2 mL/kg) approximately 12 hours apart, for a total of five doses. The same schedule was repeated with different treatment on Day 44 and Day 58 for phase 2 and 3 of the study, respectively. Animals were not treated during the 10 days between phases (washout period).
Treatment groups: Dosing was started 4 weeks after MCAO surgery. During these 4 weeks, weekly behavioral assessments, as defined below, were performed. Two dose levels of 4-AP plus vehicle control were assessed, with treatment starting at 4 weeks after ischemic event. All dosing was via gastric gavage, volume not to exceed 2 mL/kg. Animals were given the first dose and behavioral assessments were performed starting 60 minutes after dosing. […] Following the final behavioral assessment, drug was withdrawn for 10 or 11 days, behavior was re-assessed, and then animals were re-challenged with a cross-over treatment (Phase 2 of Table 2B) as described in Tables 2A, 2B and 3, followed by the same behavioral testing and dosing regimen. […]

[4] = system: rats with middle cerebral artery occlusion (MCAO); test: Forelimb placing test after MCAO; type: in vivo, Sprague Dawley rats; conditions: for Forelimb Placing Total Score: 0=normal, 12=maximally impaired
Source text: as §1, §2, §3
Treatment groups: Dosing was started 4 weeks after MCAO surgery. During these 4 weeks, weekly behavioral assessments, as defined below, were performed. Two dose levels of 4-AP plus vehicle control were assessed, with treatment starting at 4 weeks after ischemic event. All dosing was via gastric gavage, volume not to exceed 2 mL/kg. Animals were given the first dose and behavioral assessments were performed starting 60 minutes after dosing. Animals then received the second dose that day at the appropriate time and b.i.d (preferably every 12 hours) thereafter for 2 more days (3 total days of dosing, 5 total doses). One hour after the 5th dose, animals were subjected to behavioral assessments as defined below. Following the final behavioral assessment, drug was withdrawn for 10 or 11 days, behavior was re-assessed, and then animals were re-challenged with a cross-over treatment (Phase 2 of Table 2B) as described in Tables 2A, 2B and 3, followed by the same behavioral testing and dosing regimen. This cross-over was repeated one more time as well (Phase 3 of Table 2B) (see FIG. 2).
Behavioral test details: Behavioral evaluations were done by evaluators blinded to treatment assignment. Blinded assessments of sensorimotor function were performed just prior to MCAO surgery, 24 hours after MCAO surgery and weekly thereafter until the first phase of dosing using limb placing and body swing behavioral tests. As described above, behavioral assessments were timed exactly with dosing times. Animals were tested one hour after the 1st and 5th doses of each phase (i.e., Days 30 and 32 of the first phase, Days 44 and 46 of the second phase; and Days 58 and 60 of the third phase); animals were also tested during the washout periods on Days 42 and 56. Animals were given the first dose, behavioral assessments were performed starting 60 minutes later, and blood was collected 90 minutes after dosing. […]

Nc1ccncc1 [4-AP, 4-aminopyridine]
half life ([1]; Hayes et al., J. Clin. Pharmacol. 2003): 1 to 1.5 h
4-AP plasma concentrations obtained in clinical studies ([1]; typical, (94 ng/mL^−1)): < 1 µM
Mean infarct volume (%) ([2]; Group 1 (H, L, V)): 45.0 (±1.8) %
Mean infarct volume (%) ([2]; Group 2 (L, V, H)): 41.4 (±2.3) %
Mean infarct volume (%) ([2]; Group 3 (V, H, L)): 39.0 (±3.3) %
Mean (SE) Infarct Volume (%) ([2]; Example 17, 4-AP 0.5, 1 and 2 mg/kg b.i.d. Days 56-65, brains at day 70 after MCAO): 40.0 (2.3) %
Weight (Body weight of MCAO rats; Group 1, D 1): 291 g and 317 g (2×) and 306 g and 315 g and 323 g and 294 g
Weight (Body weight of MCAO rats; Group 1, D 7): 328 g and 361 g and 359 g and 375 g and 369 g and 340 g and 366 g
Weight (Body weight of MCAO rats; Group 1, D 14): 375 g and 403 g and 394 g and 421 g and 436 g and 382 g and 422 g
Weight (Body weight of MCAO rats; Group 1, D 21): 399 g and 419 g and 416 g and 444 g and 494 g and 428 g and 469 g
Weight (Body weight of MCAO rats; Group 1, D 28): 427 g and 451 g and 436 g and 484 g and 525 g and 457 g and 506 g
Weight (Body weight of MCAO rats; Group 1, D 30): 425 g and 450 g and 435 g and 490 g and 544 g and 470 g and 512 g
Weight (Body weight of MCAO rats; Group 1, D 32): 411 g and 441 g and 417 g and 470 g and 515 g and 454 g and 496 g
Weight (Body weight of MCAO rats; Group 1, D 42): 448 g and 491 g and 449 g and 499 g and 565 g and 479 g and 543 g
Weight (Body weight of MCAO rats; Group 1, D 44): 455 g and 501 g and 447 g and 511 g and 566 g and 480 g and 545 g and 454 g
Weight (Body weight of MCAO rats; Group 1, D 46): 448 g and 490 g and 440 g and 494 g and 570 g and 488 g and 552 g
Weight (Body weight of MCAO rats; Group 1, D 56): 476 g and 509 g and 452 g and 523 g and 612 g and 496 g and 576 g
Weight (Body weight of MCAO rats; Group 1, D 58): 480 g and 520 g and 460 g and 530 g and 625 g and 512 g and 585 g
Weight (Body weight of MCAO rats; Group 1, D 60): 475 g and 511 g and 456 g and 527 g and 615 g and 509 g and 587 g
Weight (Body weight of MCAO rats; Group 1, D −1): 305 g and 317 g and 311 g and 332 g and 340 g and 324 g and 330 g and 313 g
Effect on global body control (body swing test) ([3]; Example 2, low (0.63 mg/kg) or high (2 mg/kg) dose b.i.d. p.o., started 4 weeks post MCAO, dose-dependent, reversible): effective to improve global body control; also recorded: significant improvement
Body swing performance ([3]; Example 17 dose escalation, groups diverged before treatment initiation): no conclusions can be drawn
Body Swing Test (% right Swing) ([3]; D 44 after MCAO): 39.56%
Body Swing Test (% right Swing) ([3]; D 46 after MCAO): 40.44%
Effect on forelimb function (forelimb placing test) ([4]; Example 2, low (0.63 mg/kg) or high (2 mg/kg) dose b.i.d. p.o., started 4 weeks post MCAO, dose-responsive, reversible): effective to improve forelimb function; also recorded: significant improvement
Forelimb Placing Total Score ([4]; Group 2, D 30 post-MCAO, Low 4-AP 0.63 mg/kg b.i.d. p.o., 1 h after 1st dose, group Mean, N=15): 4.20
Forelimb Placing Total Score ([4]; Group 2, D 58 post-MCAO, High 4-AP 2.0 mg/kg b.i.d. p.o., 1 h after 1st dose, group Mean, N=15): 1.90
Forelimb Placing Total Score ([4]; Group 3, D 44 post-MCAO, High 4-AP 2.0 mg/kg b.i.d. p.o., 1 h after 1st dose, group Mean, N=15): 2.67
Forelimb Placing Total Score ([4]; Group 3, D 44 post-MCAO, High 4-AP 2.0 mg/kg b.i.d. p.o., 1 h after 1st dose, individual rats): 4.00 (3×) and 1.00 and 2.50 and 3.00 (3×) and 4.50 (2×) and 0.00 (3×) and 5.00 and 1.50
Forelimb Placing Total Score ([4]; Group 3, D 46 post-MCAO, High 4-AP 2.0 mg/kg b.i.d. p.o., 1 h after 5th dose, group Mean, N=15): 1.33
Forelimb Placing Total Score ([4]; Group 3, D 46 post-MCAO, High 4-AP 2.0 mg/kg b.i.d. p.o., 1 h after 5th dose, individual rats): 3.00 (3×) and 0.00 (5×) and 2.00 and 1.50 (3×) and 1.00 (2×) and 2.50
Forelimb Placing Total Score ([4]; Group 3, D 58 post-MCAO, Low 4-AP 0.63 mg/kg b.i.d. p.o., 1 h after 1st dose, group Mean, N=15): 2.00
Forelimb Placing Total Score ([4]; Group 3, D 58 post-MCAO, Low 4-AP 0.63 mg/kg b.i.d. p.o., 1 h after 1st dose, individual rats): 3.00 (4×) and 0.50 and 2.00 and 3.50 and 1.50 (2×) and 2.50 (2×) and 4.00 and 0.00 (3×)
Forelimb Placing Total Score ([4]; Group 3, D 60 post-MCAO, Low 4-AP 0.63 mg/kg b.i.d. p.o., 1 h after 5th dose, group Mean, N=15): 1.80
Forelimb Placing Total Score ([4]; Group 3, D 60 post-MCAO, Low 4-AP 0.63 mg/kg b.i.d. p.o., 1 h after 5th dose, individual rats): 3.00 (4×) and 1.00 (2×) and 2.00 (2×) and 3.50 and 0.50 and 2.50 (2×) and 0.00 (3×)
